Test results published in patent publication US20230054333A1, “Herbicide Combinations Comprising Glufosinate and Saflufenacil” (BASF SE, priority 2020, published 2023).

Tests used:
Conditions in all cases: visual scale 0 to 100, mean of three replications
Palmer amaranth = assay: Greenhouse post emergence treatment, visual herbicidal activity against Palmer amaranth; type: in vivo, Amaranthus palmeri
Description: (§1) Synergism can be described as an interaction where the combined effect of two or more compounds is greater than the sum of the individual effects of each of the compounds. The presence of a synergistic effect in terms of percent control, between two mixing partners (X and Y) can be calculated using the Colby equation (Colby, S. R., 1967, Calculating Synergistic and Antagonistic Responses in Herbicide Combinations, Weeds, 15, 21-22):
(§2) When the observed combined control effect is greater than the expected (calculated) combined control effect (E), then the combined effect is synergistic.
(§3) Weeds included Palmer aamaranth (Amaranthus palmen) and crop plants included soybean (Glycine max) with glufosinate tolerance (Liberty Link, BASF) or glyphosate tolerance (Roundup Ready, Bayer). However, the herbicidal effect afforded by the compounds, mixtures or compositions is not limited to these species. The analysis of synergism or antagonism between the mixtures or compositions was determined using Colby's equation.
(§4) Pots with 0.3 L of volume were filled with soil (SunGro Horticulture, Agawam, MA 01001) to grow one plant per pot in the greenhouse until the desired developmental stage. […] During this time, the plants were tended, and their response to the individual treatments was evaluated. […]

LibertyLink Soybean = assay: Greenhouse post emergence treatment, visual herbicidal activity against LibertyLink soybean; type: in vivo, Glycine max
Description: as §1, §2, §3, §4

Roundup Ready Soybean = assay: Greenhouse post emergence treatment, visual herbicidal activity against Roundup Ready soybean; type: in vivo, Glycine max
Description: as §1, §2, §3, §4

Row | Compound | Herbicidal activity against Palmer amaranth (2 DAT) Found (Palmer amaranth; Glufosinate 280 g ai/ha) | Herbicidal activity against LibertyLink Soybean (2 DAT) Found (LibertyLink Soybean; Glufosinate 280 g ai/ha) | Herbicidal activity against Roundup Ready Soybean (2 DAT) Found (Roundup Ready Soybean; Glufosinate 280 g ai/ha) | Herbicidal activity against Palmer amaranth (2 DAT) Found (Palmer amaranth; Saflufenacil 1 g ai/ha) | Herbicidal activity against LibertyLink Soybean (2 DAT) Found (LibertyLink Soybean; Saflufenacil 1 g ai/ha) | Herbicidal activity against Roundup Ready Soybean (2 DAT) Found (Roundup Ready Soybean; Saflufenacil 1 g ai/ha)
1 | CP(=O)(O)CCC(N)C(=O)O (racemic) [Glufosinate, (2RS)-2-amino-4-[hydroxy(methyl)phosphinoyl]butyric acid] | 20 | 5 | 35 | – | – | –
2 | CC(C)N(C)S(=O)(=O)NC(=O)c1cc(-n2c(=O)cc(C(F)(F)F)n(C)c2=O)c(F)cc1Cl [Saflufenacil] | – | – | – | 4 | 1 | 0
